Measured values: US20250197375A1, “PYRIMIDINES AND METHODS OF THEIR USE” (Kineta, Inc., priority 2021, published 2025)

These compounds were tested against PIKfyve (Homo sapiens (Human), UniProt Q9Y2I7) (assay: PIKfyve EEA1 Assay (endosomal vesicle enlargement, high content imaging in U2OS cells)). Conditions: 3 hours of treatment, activity relative to maximal APY0201 activity.
Type: cell-based
Description: PIKfyve EEA1 Assay. Genetic or pharmacological disruption of PIKfyve activity results in enlargement of endosomal vesicles. This enlargement was utilized as a surrogate readout of PIKFyve inhibition for routine triage of PIKfyve inhibitors. U2OS cells grown in 96-well assay plates were treated with compound diluted in DMEM media containing 10% fetal bovine serum. After 3 hours of treatment, cells were fixed with paraformaldehyde, permeabilized with 0.2% Triton-X in phosphate buffered saline and stained against EEA1. During the secondary antibody staining, cells were also stained with CellMask™ Deep Red and Hoechst to detect cytoplasms and nuclei respectively. Endosomal structures were visualized using a high content imager at 40× magnification. Images were analyzed using a linear classifier algorithm integrating EEA1 spot size, intensity and texture trained on images of cells treated with the potent reference compound APY0201. Compound activity was calculated by subtracting the DMSO signal and calculating percentage activity relative to maximal APY0201 activity. IC50 values were then calculated from concentration versus percent inhibition data by logistic regression.

Chain of PIKfyve (Q9Y2I7 whole entry): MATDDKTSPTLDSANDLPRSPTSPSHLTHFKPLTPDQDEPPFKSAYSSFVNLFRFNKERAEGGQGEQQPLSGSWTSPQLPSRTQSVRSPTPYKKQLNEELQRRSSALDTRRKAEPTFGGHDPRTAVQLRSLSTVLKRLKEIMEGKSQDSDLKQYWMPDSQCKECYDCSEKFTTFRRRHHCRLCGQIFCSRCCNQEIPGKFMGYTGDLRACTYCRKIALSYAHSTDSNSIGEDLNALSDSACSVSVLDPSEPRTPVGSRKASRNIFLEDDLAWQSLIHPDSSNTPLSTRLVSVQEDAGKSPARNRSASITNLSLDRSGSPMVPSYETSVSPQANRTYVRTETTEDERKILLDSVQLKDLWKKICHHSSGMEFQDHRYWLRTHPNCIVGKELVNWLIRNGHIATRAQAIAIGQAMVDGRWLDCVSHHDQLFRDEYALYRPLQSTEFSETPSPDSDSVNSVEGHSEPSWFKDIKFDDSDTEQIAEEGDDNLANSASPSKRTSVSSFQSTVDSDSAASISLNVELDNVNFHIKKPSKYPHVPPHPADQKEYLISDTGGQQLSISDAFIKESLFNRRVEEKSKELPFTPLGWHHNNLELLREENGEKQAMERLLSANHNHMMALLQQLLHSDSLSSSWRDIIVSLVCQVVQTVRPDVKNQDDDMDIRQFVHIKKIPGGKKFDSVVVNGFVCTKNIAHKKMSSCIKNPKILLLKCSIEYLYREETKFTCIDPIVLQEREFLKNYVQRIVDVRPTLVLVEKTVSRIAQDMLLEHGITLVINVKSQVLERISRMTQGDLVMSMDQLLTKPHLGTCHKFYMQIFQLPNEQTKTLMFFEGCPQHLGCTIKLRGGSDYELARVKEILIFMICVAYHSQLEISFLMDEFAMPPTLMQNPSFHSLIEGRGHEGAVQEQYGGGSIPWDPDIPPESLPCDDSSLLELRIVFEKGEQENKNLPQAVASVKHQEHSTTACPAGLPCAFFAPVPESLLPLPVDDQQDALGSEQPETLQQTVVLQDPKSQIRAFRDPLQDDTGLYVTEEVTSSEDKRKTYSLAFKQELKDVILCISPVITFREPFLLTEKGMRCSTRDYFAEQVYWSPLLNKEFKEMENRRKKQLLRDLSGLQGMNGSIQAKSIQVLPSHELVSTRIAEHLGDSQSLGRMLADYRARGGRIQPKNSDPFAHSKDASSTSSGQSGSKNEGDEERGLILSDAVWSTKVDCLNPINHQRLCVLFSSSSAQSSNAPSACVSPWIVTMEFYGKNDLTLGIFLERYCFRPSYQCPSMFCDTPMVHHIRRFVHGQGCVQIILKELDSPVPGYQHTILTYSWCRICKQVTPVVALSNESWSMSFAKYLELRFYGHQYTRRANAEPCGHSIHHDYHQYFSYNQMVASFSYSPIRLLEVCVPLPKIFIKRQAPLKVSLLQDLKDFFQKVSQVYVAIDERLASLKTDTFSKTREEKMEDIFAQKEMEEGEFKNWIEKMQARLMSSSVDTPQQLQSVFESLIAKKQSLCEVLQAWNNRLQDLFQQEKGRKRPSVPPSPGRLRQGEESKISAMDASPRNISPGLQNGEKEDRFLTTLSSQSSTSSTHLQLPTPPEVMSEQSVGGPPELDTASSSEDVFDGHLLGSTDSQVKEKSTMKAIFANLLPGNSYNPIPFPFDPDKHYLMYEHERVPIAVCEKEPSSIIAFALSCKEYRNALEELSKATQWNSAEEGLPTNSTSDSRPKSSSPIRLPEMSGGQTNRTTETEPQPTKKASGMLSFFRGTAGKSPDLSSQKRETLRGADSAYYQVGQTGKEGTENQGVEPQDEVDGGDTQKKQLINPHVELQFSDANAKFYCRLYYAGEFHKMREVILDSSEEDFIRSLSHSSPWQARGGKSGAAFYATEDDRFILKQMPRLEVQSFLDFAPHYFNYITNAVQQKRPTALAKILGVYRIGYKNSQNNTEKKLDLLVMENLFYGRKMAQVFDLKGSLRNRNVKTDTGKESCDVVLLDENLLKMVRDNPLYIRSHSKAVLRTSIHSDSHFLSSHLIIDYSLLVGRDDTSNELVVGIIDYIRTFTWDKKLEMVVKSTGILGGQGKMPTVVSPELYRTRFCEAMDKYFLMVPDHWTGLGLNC

| Compound | IC50 [µM] |
| --- | --- |
| COc1c(N2CCOCC2)nc(-c2cccc(-n3cccn3)c2)nc1N1CCN(C)C(=O)C1 [Compound 36] | 1 to 10 |
| COc1c(-c2cccc(-n3cccn3)c2)nc(N2CCN(C)C(=O)C2)nc1N1CCOCC1 [Compound 37, 4-[5-methoxy-4-morpholino-6-(3-pyrazol-1-ylphenyl)pyrimidin-2-yl]-1-methyl-piperazin-2-one] | 1 to 10 |
| COc1c(Nc2ccncc2)nc(OC[C@H]2COCCN2)nc1-c1cccc(-c2ccn(C)n2)c1 [Compound 42, (R)-5-methoxy-6-(3-(1-methyl-1H-pyrazol-3-yl)phenyl)-2-(morpholin-3-ylmethoxy)-N-(pyridin-4-yl)pyrimidin-4-amine] | 1 to 10 |
| COc1c(Nc2ccncc2)nc(N2CCOC[C@H]2CO)nc1-c1cccc(-c2ccn(C)n2)c1 [Compound 43] | 1 to 10 |
| Cn1ccc(-c2cccc(-c3nc(N4CCOCC4)nc(Nc4cccnc4)c3P(C)(C)=O)c2)n1 [Compound 45, dimethyl(4-(3-(1-methyl-1H-pyrazol-3-yl)phenyl)-2-morpholino-6-(pyridin-3-ylamino)pyrimidin-6-yl)phosphine oxide] | 1 to 10 |
| COc1c(Nc2ccncc2)nc(N2CCOCC2)nc1-c1cccc(N2CCC(O)CC2)c1 [Compound 48, 1-(3-(5-methoxy-2-morpholino-6-(pyridin-4-ylamino)pyrimidin-4-yl)phenyl)piperidin-4-ol] | 0.1 to 1 |
| Clc1c(Nc2ccncc2)nc(N2CCOCC2)nc1-c1cccc(-n2cccn2)c1 [Compound 50, 6-(3-(1H-pyrazol-1-yl)phenyl)-5-chloro-2-morpholino-N-(pyridin-4-yl)pyrimidin-4-amine] | 0.1 to 1 |
| COc1ccc(-c2nc(N3CCOCC3)nc(Nc3ccncc3)c2OC)nc1OC [Compound 51, 6-(5,6-dimethoxypyridin-2-yl)-5-methoxy-2-morpholino-N-(pyridin-4-yl)pyrimidin-4-amine] | 0.1 to 1 |
| COc1c(-c2cccc(-c3ccn(C)n3)c2)nc(N2CCOCC2)nc1-c1cnn(C)c1 [Compound 52, 4-(5-methoxy-4-(3-(1-methyl-1H-pyrazol-3-yl)phenyl)-6-(1-methyl-1H-pyrazol-4-yl)pyrimidin-2-yl)morpholine] | 1 to 10 |
| COc1c(Nc2ccncc2)nc(-c2ccncc2)nc1-c1cccc(-c2ccn(C)n2)c1 [Compound 53, 5-methoxy-6-(3-(1-methyl-1H-pyrazol-3-yl)phenyl)-N, 2-di(pyridin-4-yl)pyrimidin-4-amine] | 0.01 to 0.1 |
| COc1c(Nc2ccncc2)nc(N2CCOCC2)nc1-c1cccc(-c2ncco2)c1 [Compound 54, 5-methoxy-2-morpholino-6-(3-(oxazol-2-yl)phenyl)-N-(pyridin-4-yl)pyrimidin-4-amine] | 0.01 to 0.1 |
| COc1c(Nc2cccnc2)nc(N2CCOCC2)nc1-c1cccc(N2CCC(O)CC2)c1 [Compound 55, 1-(3-(5-methoxy-2-morpholino-6-(pyridin-3-ylamino)pyrimidin-4-yl)phenyl)piperidin-4-ol] | 1 to 10 |
| COc1c(Nc2ccncc2)nc(N2CCOCC2)nc1-c1ccnc(-c2ccn(C)n2)n1 [Compound 56, 5-methoxy-2′-(I-methyl-1H-pyrazol-3-yl)-2-morpholino-N-(pyridin-4-yl)-4,4′-bipyrimidin-4-amine] | 0.1 to 1 |
| COc1c(-c2cccc(-c3ccn(C)n3)c2)nc(N2CCOCC2)nc1-c1ccc2ncccc2c1 [Compound 58, 4-(5-methoxy-4-(3-(1-methyl-1H-pyrazol-3-yl)phenyl)-6-(quinolin-6-yl)pyrimidin-2-yl)morpholine] | 0.1 to 1 |
| Cn1ccc(-c2cccc(-c3nc(N4CCOCC4)nc(Nc4cccnc4)c3[S+](C)[O-])c2)n1 (stereo not drawn) [Compound 59] | 1 to 10 |
| COc1c(-c2cccc(-c3ccn(C)n3)c2)nc(N2CCOCC2)nc1N1CCN(C)C(=O)C1 [Compound 60, 4-(5-methoxy-6-(3-(1-methyl-1H-pyrazol-3-yl)phenyl)-2-morpholinopyrimidin-4-yl)-1-methylpiperazin-2-one] | 1 to 10 |
| COc1c(-c2cccc(-n3cccn3)c2)nc(N2CCOCC2)nc1-c1nc(-c2ccccc2)c[nH]1 [Compound 61, 4-(4-(3-(1H-pyrazol-1-yl)phenyl)-6-methoxy-6-(4-phenyl-1H-imidazol-2-yl)pyrimidin-2-yl)morpholine] | 1 to 10 |
| COc1c(NCc2cccnc2)nc(-c2cccc(-c3ccn(C)n3)c2)nc1-c1ccncc1 [Compound 63, 5-methoxy-2-(3-(1-methyl-1H-pyrazol-3-yl)phenyl)-N-(pyridin-3-ylmethyl)-6-(pyridin-4-yl)pyrimidin-4-amine] | 1 to 10 |
| O=c1[nH]c2ccc(-n3cccn3)cc2c2nc(N3CCOCC3)nc(Nc3ccncc3)c12 [Compound 64, 2-morpholino-9-pyrazol-1-yl-4-(4-pyridylamino)-6H-pyrimido[5,4-c]quinolin-5-one] | 1 to 10 |
| CN(C)C(=O)c1c(Nc2ccncc2)nc(N2CCOCC2)nc1-c1cccc(-c2ccn(C)n2)c1 [Compound 66] | 0.1 to 1 |
| CN(C)C(=O)c1c(Nc2ccncc2)nc(N2CCOCC2)nc1-c1cccc(C#N)c1 [Compound 67] | 1 to 10 |
| Cn1ccc(-c2cccc(-c3nc(N4CCOCC4)nc(Nc4ccncc4)c3C(=O)N3CCC3)c2)n1 [Compound 68] | 0.01 to 0.1 |
| CN(C)C(=O)c1c(Nc2cccnc2)nc(N2CCOCC2)nc1-c1cccc(-n2cccn2)c1 [Compound 69] | 1 to 10 |
| OCc1c(Nc2cccnc2)nc(N2CCOCC2)nc1-c1cccc(-n2cccn2)c1 [Compound 70, [2-morpholino-4-(3-pyrazol-1-ylphenyl)-6-(3-pyridylamino)pyrimidin-6-yl]methanol] | 1 to 10 |
| Cn1ccc(-c2ccc3c(c2)c2nc(N4CCOCC4)nc(Nc4ccncc4)c2c(=O)n3C)n1 [Compound 71, 6-methyl-9-(1-methylpyrazol-3-yl)-2-morpholino-4-(4-pyridylamino)pyrimido[5,4-c]quinolin-one] | 0.1 to 1 |
| Cn1ccc(-c2ccc3[nH]c(=O)c4c(Nc5ccncc5)nc(N5CCOCC5)nc4c3c2)n1 [Compound 72, 9-(1-methylpyrazol-3-yl)-2-morpholino-4-(4-pyridylamino)-6H-pyrimido[5,4-c]quinolin-one] | 0.01 to 0.1 |
| Cn1ccc(-c2cccc(-c3nc(N4CCOCC4)nc(Nc4cc[n+](C)cc4)c3-c3ncco3)c2)n1 [Compound 73] | 1 to 10 |
